Literature values as cited in patent publication US20240285562A1, “USE OF (S)-3-AMINO-4-(DIFLUOROMETHYLENYL) CYCLOPENT-1-ENE-1-CARBOXYLIC ACID IN THE TREATMENT OF MULTIPLE SCLEROSIS” (Ovid Therapeutics Inc., priority 2023, published 2024).

What was measured:
[1] = tested on: alanine amidotransferase (Ala-AT)
OAT = target: T1, OAT (Homo sapiens, UniProt P04181)
T1 sequence (P04181 36-439 limits assumed): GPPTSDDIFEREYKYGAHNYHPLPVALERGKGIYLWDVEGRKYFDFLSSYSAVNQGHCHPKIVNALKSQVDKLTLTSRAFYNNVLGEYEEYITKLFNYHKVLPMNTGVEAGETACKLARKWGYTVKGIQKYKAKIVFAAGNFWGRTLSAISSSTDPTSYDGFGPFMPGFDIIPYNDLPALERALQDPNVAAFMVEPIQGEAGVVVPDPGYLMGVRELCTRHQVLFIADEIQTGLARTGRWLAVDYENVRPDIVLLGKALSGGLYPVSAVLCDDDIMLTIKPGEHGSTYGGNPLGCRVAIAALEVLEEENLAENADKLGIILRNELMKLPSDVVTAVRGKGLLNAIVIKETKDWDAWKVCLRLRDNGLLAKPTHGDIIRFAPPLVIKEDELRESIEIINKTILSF

[2] = tested on: aspartate aminotransferase (Asp-AT)
[3] = tested on: autoimmune response in EAE; conditions: oral or parenteral administration, murine EAE

N[C@H]1C[C@@H](C(=O)O)CC1=C(F)F [CPP-115, (1S,3S)-3-amino+difluoromethylenyl-1-cyclopentanoic acid, reference compound]
inactivation or inhibition of off-target enzyme [1]: not to inactivate or inhibit | Ki (OAT; OAT inactivation): 0.116 mM | inactivation or inhibition of off-target enzyme [2]: not to inactivate or inhibit

N[C@H]1C=C(C(=O)O)CC1=C(F)F [(S)-3-amino-4-(difluoromethylenyl)cyclopent-1-ene-1-carboxylic acid]
IC50 ([1]; reversible inhibition): > 4 mM | times more efficient an inactivator of OAT than CPP-115 (OAT; ratio of kinact/KI versus CPP-115): 9.0 times | IC50 ([2]; reversible inhibition): > 4 mM

NCCCC(=O)O [GABA, gamma-aminobutyric acid]
reduction of the damaging autoimmune response [3]: ineffective
